# Results: patent US20150119422A1, “SIMETHICONE FORMULATION” (DISPHAR INTERNATIONAL B.V., priority 2011, published 2015)
# Structures can show the parent of a compound that is named as a salt.
# Format: physicochemical
# Conditions: pH range of 1 to 7
# Experimental: Dissolution studies for determining release of the active ingredient at various pHs were carried out using a TDT-08 L dissolution apparatus from Electrolab®.
# The above-mentioned tablets were studied for release profile, at 30 minutes, in solutions of varied pH such as 1.2, 4.5 and 6.8 respectively in aqueous solutions of 0.1 N HCl, acetate buffer and phosphate buffer.
structure (smiles),measurement,value
CN(C)C(=O)C(CCN1CCC(O)(c2ccc(Cl)cc2)CC1)(c1ccccc1)c1ccccc1 [loperamide hydrochloride],pH dependence of release / dissolution,pH dependent dissolution characteristics
